The text below walks through data of patent publication US9375004B2 (Bayer Intellectual Property GmbH, priority 2010, dated 2016).

Series [1] deals with Fusarium nivale (var. majus). Put plainly: Fusarium nivale (var. majus)-test (wheat)/preventive. Particulars: for Efficacy: preventive, evaluated 5 days after inoculation; for protection: dose of 250 ppm and 500 ppm of active ingredient.
The next series concerns Alternaria solani. Kind of series: Alternaria test (tomato)/preventive. Type of series: in vivo. The conditions noted are these: 500 ppm, preventive, evaluated 7 days after inoculation.
Series [2] can be described thus: logP by HPLC on reversed-phase column (EEC Directive 79/831 Annex V.A8). The conditions noted are these: HPLC on reversed-phase column (C 18), EEC Directive 79/831 Annex V.A8.
The next series has as its system Puccinia triticina. Put plainly: Puccinia triticina-test (wheat)/preventive. The format is in vivo. Particulars: 500 ppm, preventive, evaluated 8 days after inoculation.

Structures are written as SMILES.

In the case of `CC(C)C1C2CCC1c1c(NC(=O)c3cn(C)nc3C(F)F)cccc12` (stereo not drawn) [15.202 (syn/anti 3/7) from WO-2004/035589] [3-(difluoromethyl)-N-(9-isopropyl-1,2,3,4-tetrahydro-1,4-methanonaphthalen-5-yl)-1-methyl-1H-pyrazole-4-carboxamide, reference compound], the figures for the Efficacy in series [1] (250 ppm) and in series [1] (500 ppm) were 50% and 83%, respectively.
For `CC(C)C1C2CCC1c1c(NC(=O)c3cn(C)nc3C(F)F)cccc12` (stereo not drawn) [15.202 (syn/anti 9/1) from WO-2004/035589] [3-(difluoromethyl)-N-(9-isopropyl-1,2,3,4-tetrahydro-1,4-methanonaphthalen-5-yl)-1-methyl-1H-pyrazole-4-carboxamide, reference compound], in that order: 50% and 50%.
Take `Cn1cc(C(=O)Nc2cccc3c2C2CCC3C2=C(Cl)Cl)c(C(F)F)n1` (centres unmarked) [A1.1 from WO-2008/131901, N-[9-(dichloromethylene)-1,2,3,4-tetrahydro-1,4-methanonaphthalen-5-yl]-3-(difluoromethyl)-1-methyl-1H-pyrazole-4-carboxamide, reference compound]: the Efficacy is 75% in series [1] (250 ppm) and 88% in series [1] (500 ppm). In addition, in series [1], the protection entry is “at least 70%”.
For the compound `CC(C)C1C2CCC1c1c(NC(=O)c3cn(C)nc3C(F)F)cccc12` (centres unmarked) [Example 15.202, 3-(difluoromethyl)-N-(9-isopropyl-1,2,3,4-tetrahydro-1,4-methanonaphthalen-5-yl)-1-methyl-1H-pyrazole-4-carboxamide, reference compound], the protection entry in series [1] was “average (less than 50%) protection to good (at least 70%) protection”.
`COC(C)(C)C#Cc1ccccc1NC(=O)c1c(C(F)F)nn(C)c1F` [Example 19]: in the series with Alternaria solani, the Efficacy is listed as 80%. Further, in series [2], the logP (usually a log measure of how a compound divides between an organic and an aqueous phase) was 3.34.
On to `CCC(CC(C)C)c1ccccc1NC(=O)c1c(C(F)F)nn(C)c1F` (centres unmarked) [Example 20], for which the Efficacy with Alternaria solani turned out to be 90%. The compound further registered a logP in series [2] of 4.28.
As to `Cn1nc(C(F)F)c(C(=S)Nc2ccccc2CC[Si](C)(C)C)c1Cl` [Example 25], the values for the Efficacy (in the series with Puccinia triticina; in series [1] (500 ppm)) were 100% and 88%, respectively. Moreover, the logP in series [2] is 4.56.
As to `Cn1nc(C(F)F)c(C(=O)Nc2ccccc2OC(F)(F)C(F)C(F)(F)F)c1F` (centres unmarked) [Example 32], the Efficacy in the series with Alternaria solani stood at 95%. Moreover, the logP in series [2] came out at 3.48.
`Cn1nc(C(F)F)c(C(=O)Nc2cccc3c2CCC3)c1F` [Example 54]: the Efficacy with Alternaria solani amounted to 70%. The logP in series [2] is on record as 2.94.
In the case of `Cn1nc(C(F)F)c(C(=O)Nc2ccccc2-c2ccccc2)c1Cl` [Example 74], the Efficacy in the series on Alternaria solani is listed as 78%. Moreover, the logP in series [2] was found to be 3.59.
For `CC(C)Oc1cccc(NC(=O)c2c(C(F)F)nn(C)c2F)c1` [Example 170], the Efficacy is 100% in the series on Puccinia triticina and 86% in series [1] (500 ppm). The compound further showed a logP in series [2] of 2.88.
Compound `CCCOc1cccc(NC(=O)c2c(C(F)F)nn(C)c2Cl)c1` [Example 174] yielded an Efficacy with Alternaria solani of 70%. The same compound registered a logP in series [2] of 3.25.
With `Cn1nc(C(F)F)c(C(=O)Nc2ccc3c(c2)CCC3)c1Cl` [Example 193], the Efficacy in the series with Puccinia triticina turned out to be 100%; in series [1] (500 ppm), 75%. This compound returned a logP in series [2] of 3.17.
In the same order, the values of `Cc1cc(C)c(-c2cccc(NC(=O)c3c(C(F)F)nn(C)c3Cl)c2)c(C)c1` [Example 212] are 86%, 75% and 4.56.
For the compound `Cc1nn(C)c(F)c1C(=O)Nc1ccccc1C(C)CC(C)C` (centres unmarked) [I-21 from WO-2003/010149, 5-fluoro-1,3-dimethyl-N-[2-(4-methylpentan-2-yl)phenyl]-1H-pyrazole-4-carboxamide, reference compound], the Efficacy in series [1] (250 ppm) was 20%; in series [1] (500 ppm), 40%. For the same compound, the protection entry in series [1] is given as “less than 40%”.
